Source: patent US10375962B2, “Heterocycle derivatives as pesticides” (BAYER CROPSCIENCE AKTIENGESELLSCHAFT, priority 2016, dated 2019)
Like-named read-outs stand apart in the source and are kept apart here.

Columns and labels:
[1] = log P by HPLC on a reversed-phase column (C 18), EEC Directive 79/831 Annex V.A8; format: physicochemical; details: for chromatographic logP: reversed-phase HPLC column (C 18)
Excerpt: Called log P (HCOOH) in the table.
Called log P (neutral) in the table.

[2] = tested on: greenhouse red spider mite (Tetranychus urticae); assay: Tetranychus urticae - spray test, OP-resistant; format: in vivo; details: bean leaf discs, after 6 days
Protocol: (§1) Solvent: 78.0 parts by weight of acetone • • 1.5 parts by weight of dimethylformamide
(§2) Emulsifier: alkylaryl polyglycol ether
(§3) To produce a suitable active compound formulation, 1 part by weight of active compound is dissolved with the stated parts by weight of solvent and made up with water containing an emulsifier concentration of 1000 ppm until the desired concentration is attained. To produce further test concentrations, the formulation is diluted with emulsifier-containing water.
Discs of bean leaves (Phaseolus vulgaris) infested with all stages of the greenhouse red spider mite (Tetranychus urticae) are sprayed with an active compound formulation of the desired concentration.
After 6 days, the efficacy in % is determined. 100% means that all the spider mites have been killed; 0% means that no spider mites have been killed.

[3] = tested on: green peach aphid (Myzus persicae); assay: Myzus persicae - spray test (Chinese cabbage leaf discs); format: in vivo; details: after 5 days
Protocol: Solvent: 78 parts by weight of acetone • • 1.5 parts by weight of dimethylformamide Emulsifier: alkylaryl polyglycol ether
as §3
Discs of Chinese cabbage leaves (Brassica pekinensis) infested by all stages of the green peach aphid (Myzus persicae) are sprayed with an active compound formulation of the desired concentration.
After 5 days, the efficacy in % is determined. 100% means that all the aphids have been killed and 0% means that none of the aphids have been killed.

[4] = tested on: larvae of the mustard beetle (Phaedon cochleariae); assay: Phaedon cochleariae - spray test; format: in vivo; details: after 7 days
Protocol: as §1, §2, §3
Discs of Chinese cabbage leaves (Brassica pekinensis) are sprayed with an active compound formulation of the desired concentration and, after drying, populated with larvae of the mustard beetle (Phaedon cochleariae).
After 7 days, the efficacy in % is determined. 100% means that all the beetle larvae have been killed and 0% means that none of the beetle larvae have been killed.

[5] = tested on: caterpillars of the armyworm (Spodoptera frugiperda); assay: Spodoptera frugiperda - spray test; format: in vivo; details: maize leaf discs, after 7 days
Protocol: Solvent: 78.0 parts by weight of acetone • • 1.5 parts by weight of dimethylformamide Emulsifier: alkylaryl polyglycol ether […] To produce further test concentrations, the formulation is diluted with emulsifier-containing water. Leaf discs of maize (Zea mays) are sprayed with an active compound preparation of the desired concentration and, after drying, populated with caterpillars of the armyworm (Spodoptera frugiperda).

[6] = tested on: engorged adult female cattle ticks (Boophilus microplus); assay: Boophilus microplus - injection test; format: in vivo; details: application rate 20 μg/animal, after 7 days
Protocol: (§4) Solvent: dimethyl sulphoxide
To produce a suitable active compound formulation, 10 mg of active compound are mixed with 0.5 ml of solvent and the concentrate is diluted with solvent to the desired concentration.
1 μl of the active compound solution is injected into the abdomen of 5 engorged adult female cattle ticks (Boophilus microplus). The animals are transferred into dishes and kept in a climate-controlled room.
Efficacy is assessed after 7 days by laying of fertile eggs. Eggs which are not visibly fertile are stored in a climate-controlled cabinet until the larvae hatch after about 42 days. An efficacy of 100% means that none of the ticks has laid any fertile eggs; 0% means that all the eggs are fertile.

[7] = tested on: L1 larvae of the Australian sheep blowfly (Lucilia cuprina); assay: Lucilia cuprina test; format: in vivo; details: application rate 100 ppm; after 2 days
Protocol: as §4
(§5) To produce a suitable active compound formulation, 10 mg of active compound are mixed with 0.5 ml of dimethyl sulphoxide, and the concentrate is diluted with water to the desired concentration.
About 20 L1 larvae of the Australian sheep blowfly (Lucilia cuprina) are transferred into a test vessel containing minced horsemeat and the active compound formulation of the desired concentration.
After 2 days, the kill in % is determined. 100% means that all the larvae have been killed; 0% means that no larvae have been killed.

[8] = tested on: green peach aphid (Myzus persicae); assay: Myzus persicae spray test (bell pepper plants); format: in vivo; details: application rate 20 ppm, after 6 days
Protocol: Solvent: 14 parts by weight of dimethylformamide
as §2
as §3, with “water. If the addition of ammonium salts or/and penetrants is required, these are each added in a concentration of 1000 ppm to the formulation solution.” for “water.”
Bell pepper plants (Capsicum annuum) severely infested with the green peach aphid (Myzus persicae) are treated by spraying with the active compound formulation in the desired concentration.
After 6 days, the kill in % is determined. 100% means that all of the aphids have been killed; 0% means that none of the aphids have been killed.

[9] = tested on: unfed adult cat fleas (Ctenocephalides felis); assay: Ctenocephalides felis - oral test; format: in vivo; details: application rate 100 ppm in citrated cattle blood; after 2 days
Protocol: as §4
For the purpose of production of a suitable active compound formulation, 10 mg of active compound are mixed with 0.5 ml of dimethyl sulphoxide. Dilution with citrated cattle blood gives the desired concentration.
About 20 unfed adult cat fleas (Ctenocephalides felis) are placed into a chamber which is closed at the top and bottom with gauze. A metal cylinder whose bottom end is closed with parafilm is placed onto the chamber. The cylinder contains the blood/active compound formulation, which can be imbibed by the fleas through the parafilm membrane.
After 2 days, the kill in % is determined. 100% means that all of the fleas have been killed; 0% means that none of the fleas have been killed.

[10] = tested on: adult cat fleas (Ctenocephalides felis); assay: Ctenocephalides felis - in vitro contact tests with adult cat fleas; format: in vivo; details: application rate 5 μg/cm^2; after 48 h
Protocol: For the coating of the test tubes, 9 mg of active compound are first dissolved in 1 ml of acetone p.a. and then diluted to the desired concentration with acetone p.a. 250 μl of the solution are distributed homogeneously on the inner walls and the base of a 25 ml test tube by turning and rocking on an orbital shaker (rocking rotation at 30 rpm for 2 h). With 900 ppm of active compound solution and internal surface area 44.7 cm^2, given homogeneous distribution, an area-based dose of 5 μg/cm^2 is achieved.
After the solvent has evaporated off, the tubes are populated with 5-10 adult cat fleas (Ctenocephalides felis), sealed with a perforated plastic lid and incubated in a horizontal position at room temperature and ambient humidity. After 48 h, efficacy is determined. To this end, the test tubes are stood upright and the fleas are knocked to the base of the tube. Fleas which remain motionless at the base or move in an uncoordinated manner are considered to be dead or moribund.
100% efficacy means that all the fleas were dead or moribund. 0% efficacy means that no fleas were harmed.

[11] = tested on: adult houseflies (Musca domestica); assay: Musca domestica test; format: in vivo; details: application rate 100 ppm; after 2 days
Protocol: as §4, §5
Vessels containing a sponge treated with sugar solution and the active compound formulation of the desired concentration are populated with 10 adult houseflies (Musca domestica).
After 2 days, the kill in % is determined. 100% means that all of the flies have been killed; 0% means that none of the flies have been killed.

[12] = acidic range, pH 2.7, 0.1% aqueous formic acid/acetonitrile, 55° C.
[13] = neutral range, pH 7.8, 0.001 molar aqueous ammonium hydrogencarbonate/acetonitrile, 55° C.

SMILES	efficacy ([4]; application rate 500 g/ha)	efficacy ([5]; application rate 100 g/ha)	efficacy ([5]; application rate 500 g/ha)	efficacy (kill) [7]	LOGP_HCOOH (log P (HCOOH)) ([1]; pH 2.7)	LOGP_NEUTRAL (log P (neutral)) ([1]; pH 7.8)	efficacy ([4]; application rate 100 g/ha)	efficacy (kill) [9]	efficacy (fleas dead or moribund) [10]	also measured
CCS(=O)(=O)c1ccc(-n2ncc3ccc(Cl)cc32)nc1-c1nc2cc(C(F)(F)F)ncc2n1C [Example I-2, 2-[6-(6-Chloroindazol-1-yl)-3-ethylsulphonyl-2-pyridyl]-3-methyl-6-(trifluoromethyl)imidazo[4,5-c]pyridine]										chromatographic logP ([1]; acidic range, pH 2.7, 0.1% aqueous formic acid/acetonitrile, 55° C., read-out: LOGP_HCOOH (log P (HCOOH))): 4.01; chromatographic logP ([1]; neutral range, pH 7.8, 0.001 molar aqueous ammonium hydrogencarbonate/acetonitrile, 55° C., read-out: LOGP_NEUTRAL (log P (neutral))): 3.92; efficacy ([2]; application rate 500 g/ha): 70%
CCS(=O)(=O)c1ccc(-n2cc3cccc(Cl)c3n2)nc1-c1nc2cc(C(F)(F)F)ncc2n1C [Example I-5]	100%	100%	100%	100%						LOGP_HCOOH (log P (HCOOH)) [1, 12]: 3.94; LOGP_NEUTRAL (log P (neutral)) [1, 13]: 3.92; efficacy ([3]; application rate 100 g/ha): 70%; efficacy ([3]; application rate 500 g/ha): 90%; efficacy (laying of fertile eggs) [6]: 80%
CCS(=O)(=O)c1ccc(-n2ncc3cnccc32)nc1-c1nc2cc(C(F)(F)F)ncc2n1C [Example I-11]	83%									LOGP_HCOOH (log P (HCOOH)) [1, 12]: 1.75; LOGP_NEUTRAL (log P (neutral)) [1, 13]: 2.47; efficacy (laying of fertile eggs) [6]: 90%
CCS(=O)(=O)c1ccc(-c2ccc3nn(C)cc3c2)nc1-c1nc2cc(C(F)(F)F)ncc2n1C [Example I-15]	100%		100%	100%	2.62	2.58	100%			efficacy ([2]; application rate 500 g/ha): 90%
CCS(=O)(=O)c1ccc(-n2cnc3cc(Cl)ccc32)nc1-c1nc2cc(C(F)(F)F)ncc2n1C [Example I-17]	100%	100%	100%		3.19	3.12	100%	100%		efficacy (kill) [8]: 90%
CCS(=O)(=O)c1ccc(N2Cc3ccccc3C2)nc1-c1nc2cc(C(F)(F)F)ncc2n1C [Example I-21]	83%	100%	100%	100%	3.59	3.63		90%	80%	efficacy (kill) [8]: 100%
CCS(=O)(=O)c1ccc(N2Cc3cccnc3C2)nc1-c1nc2cc(C(F)(F)F)ncc2n1C [Example I-22]	100%	100%	100%	100%			100%	100%	100%	LOGP_HCOOH (log P (HCOOH)) [1, 12]: 2.44; LOGP_NEUTRAL (log P (neutral)) [1, 13]: 2.46; efficacy (kill) [8]: 99%
CCS(=O)(=O)c1ccc(-n2cnc3ccccc32)nc1-c1nc2cc(C(F)(F)F)ncc2n1C [Example I-24]	83%	83%	100%		2.66	2.64		95%	100%	efficacy ([3]; application rate 100 g/ha): 100%; efficacy ([3]; application rate 500 g/ha): 90%
CCS(=O)(=O)c1ccc(N2Cc3ccccc3C2=O)nc1-c1nc2cc(C(F)(F)F)ncc2n1C [Example I-31]	100%	100%	100%	100%			100%		100%	LOGP_HCOOH (log P (HCOOH)) [1, 12]: 3.32; LOGP_NEUTRAL (log P (neutral)) [1, 13]: 3.28; efficacy ([2]; application rate 500 g/ha): 90%
CCS(=O)(=O)c1ccc(-n2nc3c(Cl)cc(C(F)(F)F)cn3c2=O)nc1-c1nc2cc(C(F)(F)F)ncc2n1C [Example I-32]	100%	83%	100%	100%		3.39	100%	100%		efficacy (kill) [11]: 100%
CCS(=O)(=O)c1ccc(N2Cc3ccc(Cl)cc3C2=O)nc1-c1nc2cc(C(F)(F)F)ncc2n1C [Example I-34]	100%	100%	100%	100%	3.83	3.79	100%	95%	100%	efficacy (kill) [8]: 100%
CCS(=O)(=O)c1ccc(-n2cnc3nc(Cl)ccc32)nc1-c1nc2cc(C(F)(F)F)ncc2n1C [Example I-35]	100%					2.53	83%	95%	100%	
CCS(=O)(=O)c1ccc(-n2nnc3ccccc32)nc1-c1nc2cc(C(F)(F)F)ncc2n1C [Example I-39]						3.21				efficacy ([2]; application rate 100 g/ha): 70%
CCS(=O)(=O)c1ccc(-n2nc3ccccn3c2=O)nc1-c1nc2cc(C(F)(F)F)ncc2n1C [Example I-43]					2.26	2.31				efficacy ([3]; application rate 100 g/ha): 90%; efficacy ([2]; application rate 100 g/ha): 90%
